Test results: ChEMBL document CHEMBL5576135, “Discovery of Indolo[3,2-c]isoquinoline Derivatives as Novel Top1/2 Dual Inhibitors with Orally Efficacious Antitumor Activity and Low Toxicity” (J Med Chem, 2024)
The source made the active and inactive calls. The rule behind the calls is not given here.

What was measured:
PC-3 = experiment: Antiproliferative activity against human PC-3 cells assessed as inhibition of cell growth incubated for 96 hrs by MTT based ELISA; type: functional; settings: PC-3, 96 h
MDA-MB-231 = experiment: Antiproliferative activity against human MDA-MB-231 cells assessed as inhibition of cell growth incubated for 96 hrs by MTT based ELISA; type: functional; settings: MDA-MB-231, 96 h
[1] = target: T1, DNA topoisomerase 1 (Homo sapiens) (UniProt P11387); experiment: Inhibition of Topoisomerase I (unknown origin) using pBR322 DNA as substrate at 200 uM incubated for 15 mins by EtBr staining based agarose gel electrophoresis method relative to control
T1 sequence (whole entry): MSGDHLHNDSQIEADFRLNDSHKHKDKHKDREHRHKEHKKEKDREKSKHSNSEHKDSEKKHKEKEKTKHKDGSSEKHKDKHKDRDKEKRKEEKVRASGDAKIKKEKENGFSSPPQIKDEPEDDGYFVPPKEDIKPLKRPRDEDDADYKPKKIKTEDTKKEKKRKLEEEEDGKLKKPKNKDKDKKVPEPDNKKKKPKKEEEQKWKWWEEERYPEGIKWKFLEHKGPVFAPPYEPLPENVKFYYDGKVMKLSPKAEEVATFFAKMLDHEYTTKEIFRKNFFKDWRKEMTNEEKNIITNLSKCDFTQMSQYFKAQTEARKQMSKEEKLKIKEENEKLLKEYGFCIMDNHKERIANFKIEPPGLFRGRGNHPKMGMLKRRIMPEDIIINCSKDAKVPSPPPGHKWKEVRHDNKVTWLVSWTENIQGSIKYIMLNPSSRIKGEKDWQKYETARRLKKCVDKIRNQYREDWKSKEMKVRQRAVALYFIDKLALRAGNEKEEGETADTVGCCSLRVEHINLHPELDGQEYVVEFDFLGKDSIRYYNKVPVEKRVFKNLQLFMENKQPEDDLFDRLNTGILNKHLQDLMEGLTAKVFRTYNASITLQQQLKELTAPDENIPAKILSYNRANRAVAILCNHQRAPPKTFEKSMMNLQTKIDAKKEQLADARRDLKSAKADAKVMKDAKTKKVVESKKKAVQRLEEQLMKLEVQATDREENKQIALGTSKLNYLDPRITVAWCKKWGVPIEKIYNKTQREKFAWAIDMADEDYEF

HCT-116 [2] = experiment: Antiproliferative activity against human HCT-116 cells assessed as inhibition of cell growth incubated for 96 hrs by MTT based ELISA; type: functional; settings: HCT-116, 96 h
NCI-H2228 = experiment: Antiproliferative activity against human NCI-H2228 cells assessed as inhibition of cell growth incubated for 96 hrs by MTT based ELISA; type: functional; settings: NCI-H2228, 96 h
MCF7 = experiment: Antiproliferative activity against human MCF7 cells assessed as inhibition of cell growth incubated for 96 hrs by MTT based ELISA; type: functional; settings: MCF7, 96 h
[3] = target: T1, DNA topoisomerase 1 (Homo sapiens); experiment: Inhibition of Topoisomerase I (unknown origin) using pBR322 DNA as substrate at 50 uM incubated for 15 mins by EtBr staining based agarose gel electrophoresis method
[4] = target: T1, DNA topoisomerase 1 (Homo sapiens); experiment: Inhibition of Topoisomerase I (unknown origin) using pBR322 DNA as substrate at 10 uM incubated for 15 mins by EtBr staining based agarose gel electrophoresis method
[5] = target: DNA topoisomerase 2-alpha (Homo sapiens) (UniProt P11388); experiment: Inhibition of Topoisomerase 2 (unknown origin) using pBR322 DNA as substrate at 50 uM incubated for 15 mins by EtBr staining based agarose gel electrophoresis method
Huh-7 = experiment: Antiproliferative activity against human Huh-7 cells assessed as inhibition of cell growth incubated for 96 hrs by MTT based ELISA; type: functional; settings: Huh-7, 96 h
[6] = target: DNA topoisomerase 2-alpha (Homo sapiens) (UniProt P11388); experiment: Inhibition of Topoisomerase 2 (unknown origin) using pBR322 DNA as substrate at 100 uM incubated for 15 mins by EtBr staining based agarose gel electrophoresis method relative to control
HCT-116 [7] = experiment: Antitumor activity against human HCT-116 cells xenografted with BALB/c mouse assessed as tumor growth inhibition at 20 mg/kg,ip administrated twice weekly for 21 days relative to control; type: functional, organism-based; settings: time 21.0 day
NCI-H1975 = experiment: Antiproliferative activity against human NCI-H1975 cells assessed as inhibition of cell growth incubated for 96 hrs by MTT based ELISA; type: functional; settings: NCI-H1975, 96 h
NCI-H446 [8] = experiment: Inhibition of colony formation in human NCI-H446 cells at 1 uM incubated for 24 hrs by crystal violet staining based analysis relative to control; type: functional
PC-9 = experiment: Antiproliferative activity against human PC-9 cells assessed as inhibition of cell growth incubated for 96 hrs by MTT based ELISA; type: functional; settings: PC-9, 96 h
[9] = Antiproliferative activity against human BEAS-2B cells assessed as inhibition of cell growth incubated for 96 hrs by MTT based ELISA; type: toxicity
A549 = experiment: Antiproliferative activity against human A549 cells assessed as inhibition of cell growth incubated for 96 hrs by MTT based ELISA; type: functional; settings: A549, 96 h
NCI-H446 [10] = experiment: Induction of DNA damage in human NCI-H446 cells assessed as increase in intracellular gamma-H2AX level at 8 uM incubated for 48 hrs by Western blotting analysis; type: functional, cell-based
NCI-H446 [11] = experiment: Induction of cell cycle arrest in human NCI-H446 cells assessed as accumulation of cells at S phase at 8 uM incubated for 48 hrs by propidium iodide/RNase A staining based flow cytometry; type: functional
NCI-H446 [12] = experiment: Antiproliferative activity against human NCI-H446 cells assessed as inhibition of cell growth incubated for 96 hrs by MTT based ELISA; type: functional; settings: NCI-H446, 96 h
NCI-H446 [13] = experiment: Inhibition of colony formation in human NCI-H446 cells at 2 uM incubated for 24 hrs by crystal violet staining based analysis relative to control; type: functional
[14] = Toxicity in Kunming mouse assessed as reduction in body weight at 30 mg/kg,ip administrated for 3 days; type: organism-based; parameters: scale not given: the % may be the effect or the level left; settings: in vivo, 72 h, time 3 day
NCI-H446 [15] = experiment: Induction of DNA damage in human NCI-H446 cells assessed as increase in intracellular ROS level at 8 uM incubated for 6 hrs by DCFHDA probe based fluorescence microscopic analysis; type: functional, cell-based
HCT-116 [16] = experiment: Antitumor activity against human HCT-116 cells xenografted with BALB/c mouse assessed as tumor growth inhibition by measuring T/C ratio at 20 mg/kg,ip administrated twice weekly for 21 days; type: functional, organism-based; settings: time 21.0 day
NCI-H446 [17] = experiment: Induction of apoptosis in human NCI-H446 cells at 8 uM incubated for 48 hrs by Annexin V-FITC/PI staining based flow cytometry relative to control; type: functional
NCI-H446 [18] = experiment: Induction of cell cycle arrest in human NCI-H446 cells assessed as accumulation of cells at G2/M phase at 8 uM incubated for 48 hrs by propidium iodide/RNase A staining based flow cytometry; type: functional
NCI-H446 [19] = experiment: Induction of DNA damage in human NCI-H446 cells assessed as tail DNA at 8 uM incubated for 48 hrs by comet assay relative to control; type: functional
NCI-H1650 = experiment: Antiproliferative activity against human NCI-H1650 cells assessed as inhibition of cell growth incubated for 96 hrs by MTT based ELISA; type: functional; settings: NCI-H1650, 96 h
NCI-H446 [20] = experiment: Inhibition of cell migration in human NCI-H446 cells at 4 uM incubated for 48 hrs by phase-contrast microscopic analysis relative to control; type: functional
DU-145 = experiment: Antiproliferative activity against human DU-145 cells assessed as inhibition of cell growth incubated for 96 hrs by MTT based ELISA; type: functional; settings: DU-145, 96 h
[21] = Toxicity in Kunming mouse assessed as lethal dose at po administration for 2 weeks; type: organism-based; settings: in vivo
[22] = Toxicity in Kunming mouse assessed as reduction in body weight at 100 mg/kg,po administrated for 3 days; type: organism-based; parameters: scale not given: the % may be the effect or the level left; settings: in vivo, 72 h, time 3 day
[23] = target: T1, DNA topoisomerase 1 (Homo sapiens); experiment: Inhibition of Topoisomerase I (unknown origin) using pBR322 DNA as substrate at 1 uM incubated for 15 mins by EtBr staining based agarose gel electrophoresis method
[24] = target: DNA topoisomerase 2-alpha (Homo sapiens) (UniProt P11388); experiment: Inhibition of Topoisomerase 2 (unknown origin) using pBR322 DNA as substrate at 0.5 uM incubated for 15 mins by EtBr staining based agarose gel electrophoresis method
[25] = target: DNA topoisomerase 2-alpha (Homo sapiens) (UniProt P11388); experiment: Inhibition of Topoisomerase 2 (unknown origin) using pBR322 DNA as substrate at 10 uM incubated for 15 mins by EtBr staining based agarose gel electrophoresis method
[26] = target: T1, DNA topoisomerase 1 (Homo sapiens); experiment: Inhibition of Topoisomerase I (unknown origin) using pBR322 DNA as substrate at 5 uM incubated for 15 mins by EtBr staining based agarose gel electrophoresis method
[27] = target: T1, DNA topoisomerase 1 (Homo sapiens); experiment: Inhibition of Topoisomerase I (unknown origin) using pBR322 DNA as substrate at 2 uM incubated for 15 mins by EtBr staining based agarose gel electrophoresis method
NCI-H446 [28] = experiment: Antitumor activity against human NCI-H446 cells xenografted with BALB/c mouse assessed as tumor growth inhibition at 4 mg/kg,ip administrated 3 times weekly for 21 days in presence of cisplatin relative to control; type: functional; settings: NCI-H446, 504 h, time 21 day, read-out: TGI
NCI-H446 [29] = experiment: Antitumor activity against human NCI-H446 cells xenografted with BALB/c mouse assessed as tumor growth inhibition by measuring T/C ratio at 4 mg/kg,ip administrated 3 times weekly for 21 days in presence of cisplatin; type: functional; settings: time 21 day

Chain of DNA topoisomerase 2-alpha (Homo sapiens) (P11388 whole entry): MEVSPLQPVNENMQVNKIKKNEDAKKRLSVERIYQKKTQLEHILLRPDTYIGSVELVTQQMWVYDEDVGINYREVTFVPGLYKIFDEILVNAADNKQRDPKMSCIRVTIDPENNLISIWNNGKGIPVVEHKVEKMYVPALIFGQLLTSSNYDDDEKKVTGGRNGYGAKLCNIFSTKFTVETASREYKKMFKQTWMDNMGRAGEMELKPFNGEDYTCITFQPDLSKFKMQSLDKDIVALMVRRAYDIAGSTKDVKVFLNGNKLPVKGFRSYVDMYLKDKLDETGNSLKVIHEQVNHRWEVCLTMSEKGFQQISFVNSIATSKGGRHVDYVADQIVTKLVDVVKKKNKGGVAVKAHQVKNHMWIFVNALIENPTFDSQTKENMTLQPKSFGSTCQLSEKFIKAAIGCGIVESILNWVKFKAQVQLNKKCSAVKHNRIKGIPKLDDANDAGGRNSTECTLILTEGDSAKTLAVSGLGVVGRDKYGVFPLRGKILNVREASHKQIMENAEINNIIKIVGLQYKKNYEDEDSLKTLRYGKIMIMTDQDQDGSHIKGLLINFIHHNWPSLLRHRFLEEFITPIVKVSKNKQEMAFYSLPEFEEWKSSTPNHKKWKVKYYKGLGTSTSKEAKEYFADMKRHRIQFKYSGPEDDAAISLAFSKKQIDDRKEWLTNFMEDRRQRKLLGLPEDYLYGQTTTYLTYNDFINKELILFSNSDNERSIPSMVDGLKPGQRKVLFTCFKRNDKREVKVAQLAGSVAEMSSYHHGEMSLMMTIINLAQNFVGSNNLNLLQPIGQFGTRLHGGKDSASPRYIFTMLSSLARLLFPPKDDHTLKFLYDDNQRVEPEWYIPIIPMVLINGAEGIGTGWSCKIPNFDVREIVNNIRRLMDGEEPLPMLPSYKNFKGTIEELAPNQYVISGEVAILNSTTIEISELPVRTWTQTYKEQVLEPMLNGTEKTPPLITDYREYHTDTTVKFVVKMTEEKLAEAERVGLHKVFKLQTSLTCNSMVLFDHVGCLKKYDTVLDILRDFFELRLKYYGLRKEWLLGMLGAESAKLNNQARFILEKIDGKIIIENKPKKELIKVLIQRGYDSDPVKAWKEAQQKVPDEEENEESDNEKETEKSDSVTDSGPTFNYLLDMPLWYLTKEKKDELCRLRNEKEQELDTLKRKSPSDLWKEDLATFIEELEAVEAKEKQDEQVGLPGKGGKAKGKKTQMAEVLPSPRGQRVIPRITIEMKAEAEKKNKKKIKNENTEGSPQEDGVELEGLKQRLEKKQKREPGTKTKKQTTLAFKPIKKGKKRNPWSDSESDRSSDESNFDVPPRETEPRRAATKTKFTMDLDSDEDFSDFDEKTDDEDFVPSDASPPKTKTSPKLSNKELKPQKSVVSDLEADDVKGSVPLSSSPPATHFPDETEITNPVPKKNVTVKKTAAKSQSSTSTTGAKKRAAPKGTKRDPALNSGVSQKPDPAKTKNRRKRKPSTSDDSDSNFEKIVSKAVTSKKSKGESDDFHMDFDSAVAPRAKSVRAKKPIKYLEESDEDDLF

SMILES	IC50 (PC-3) [nM]	IC50 (MDA-MB-231) [nM]	inhibition [1] [%]	IC50 (HCT-116 [2]) [nM]	IC50 (NCI-H2228) [nM]	IC50 (MCF7) [nM]	inhibition [3]	inhibition [4]	inhibition [5]	IC50 (Huh-7) [nM]	inhibition [6] [%]	also measured
CN(C)CCCn1c2cc3c(cc2c2[nH]c(=O)c4ccccc4c21)OCO3	630	480	> 95	220	1160	600	Active	Active	Active	1240	> 95	–
CCc1c2c(nc3ccc(OC(=O)N4CCC(N5CCCCC5)CC4)cc13)-c1cc3c(c(=O)n1C2)COC(=O)[C@]3(O)CC [IRINOTECAN]	3670	> 10000	–	3160	3430	4590	–	–	–	> 10000	–	inhibition (HCT-116 [7]): Active; IC50 (NCI-H1975): 3410 nM; inhibition at 1 µM (NCI-H446 [8]): 85.8%; IC50 (PC-9): 3840 nM; IC50 at 96 h [9]: > 10000 nM; IC50 (A549): > 10000 nM; Activity (NCI-H446 [10]): Active; Activity (NCI-H446 [11]): 59.3%; IC50 (NCI-H446 [12]): 780 nM; inhibition at 2 µM (NCI-H446 [13]): 33.7%; Activity [14]: > 10%; Activity (NCI-H446 [15]): Active; inhibition (HCT-116 [16]): Active; Activity (NCI-H446 [17]): 5.3%; Activity (NCI-H446 [18]): 59.3%; Activity (NCI-H446 [19]): 27.8%; IC50 (NCI-H1650): 6800 nM; inhibition at 4 µM (NCI-H446 [20]): 54.5%; IC50 (DU-145): 960 nM
CC[C@@]1(O)C(=O)OCc2c1cc1n(c2=O)Cc2cc3c(CN(C)C)c(O)ccc3nc2-1 [TOPOTECAN]	–	–	–	–	–	–	–	–	–	–	–	LD50 at 336 h [21]: < 1000 mg/kg; Activity [22]: > 10%
O=C(CCCn1c2cc3c(cc2c2nc(Cl)c4ccccc4c21)OCO3)NO	2440	1640	> 95	1870	3640	2860	Active	Active	Active	4100	> 95	inhibition [23]: Active; inhibition [24]: Active; inhibition [25]: Active; inhibition [26]: Active; inhibition [27]: Active
COc1cc([C@@H]2c3cc4c(cc3[C@@H](O[C@@H]3O[C@@H]5CO[C@@H](C)O[C@H]5[C@H](O)[C@H]3O)[C@H]3COC(=O)[C@H]23)OCO4)cc(OC)c1O [ETOPOSIDE]	1590	2870	–	2000	2510	1180	–	–	–	3800	–	IC50 (NCI-H1975): 340 nM; inhibition in vivo at 4 mg/kg (NCI-H446 [28]): 27.7%; IC50 (PC-9): 2220 nM; T/C (NCI-H446 [29]): 68.2%; IC50 at 96 h [9]: > 10000 nM; IC50 (A549): > 10000 nM; IC50 (NCI-H446 [12]): 240 nM; Activity [14]: > 10%; IC50 (NCI-H1650): 2650 nM; IC50 (DU-145): 1650 nM
O=C(CCCn1c2cc3c(cc2c2ncc4ccccc4c21)OCO3)NO	1550	950	> 95	1320	3070	2320	Active	Active	Active	2890	> 95	–
COc1ccc2c(c1)c1nc(Cl)c3ccccc3c1n2CCCC(=O)NO	1660	980	> 95	740	2390	1510	Active	Active	Active	2980	> 95	–
CN(C)CCCn1c2cc3c(cc2c2nc(Cl)c4ccccc4c21)OCO3	470	560	> 95	260	960	370	Active	Active	Active	940	> 95	–
